Laboratory results reported in ChEMBL document CHEMBL5150060 (J Med Chem, 2022).
pIC50, pKi: −log10 of the molar value. Activity calls are given as the source filed them. No cut-off for these calls is given here.

What was measured:
[1] = target: T1, Histone deacetylase 1 (Homo sapiens, UniProt Q13547); test: Inhibition of recombinant human HDAC1 using p53 (Ac-RHKK(Acetyl)-AMC) as substrate preincubated for 5 mins followed by substrate addition and measured after 90 mins by fluorescence based analysis
[2] = target: T2, Histone deacetylase 2 (Homo sapiens, UniProt Q92769); test: Inhibition of recombinant human HDAC2 using p53 (Ac-RHKK(Acetyl)-AMC) as substrate preincubated for 5 mins followed by substrate addition and measured after 30 mins by fluorescence based analysis
[3] = target: T3, Histone deacetylase 3 (Homo sapiens, UniProt O15379); test: Inhibition of recombinant human HDAC3 using p53 (Ac-RHKK(Acetyl)-AMC) as substrate preincubated for 5 mins followed by substrate addition and measured after 30 mins by fluorescence based analysis
[4] = target: T4, Histone deacetylase 8 (Homo sapiens, UniProt Q9BY41); test: Inhibition of recombinant human HDAC8 using (Abz-SRGK(thio-TFA)FFRR-NH2) as substrate preincubated for 5 mins followed by substrate addition by fluorescence based analysis
T4 sequence (Q9BY41 whole entry): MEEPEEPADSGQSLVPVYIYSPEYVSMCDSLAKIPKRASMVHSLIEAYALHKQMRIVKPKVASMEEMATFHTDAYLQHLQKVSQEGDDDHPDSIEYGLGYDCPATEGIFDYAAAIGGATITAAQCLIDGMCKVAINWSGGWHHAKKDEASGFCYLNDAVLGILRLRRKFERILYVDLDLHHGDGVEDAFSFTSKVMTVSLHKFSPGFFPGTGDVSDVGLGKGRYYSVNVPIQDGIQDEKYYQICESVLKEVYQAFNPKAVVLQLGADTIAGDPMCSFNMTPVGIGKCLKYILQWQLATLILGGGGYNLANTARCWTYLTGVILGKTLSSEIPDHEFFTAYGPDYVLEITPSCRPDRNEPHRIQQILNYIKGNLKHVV

[5] = target: Histone deacetylase 4 (Homo sapiens, UniProt P56524); test: Inhibition of HDAC4 (unknown origin)
[6] = target: T5, Protein deacetylase HDAC6 (Homo sapiens, UniProt Q9UBN7); test: Inhibition of recombinant human HDAC6 (unknown origin)
T5 sequence (Q9UBN7 whole entry): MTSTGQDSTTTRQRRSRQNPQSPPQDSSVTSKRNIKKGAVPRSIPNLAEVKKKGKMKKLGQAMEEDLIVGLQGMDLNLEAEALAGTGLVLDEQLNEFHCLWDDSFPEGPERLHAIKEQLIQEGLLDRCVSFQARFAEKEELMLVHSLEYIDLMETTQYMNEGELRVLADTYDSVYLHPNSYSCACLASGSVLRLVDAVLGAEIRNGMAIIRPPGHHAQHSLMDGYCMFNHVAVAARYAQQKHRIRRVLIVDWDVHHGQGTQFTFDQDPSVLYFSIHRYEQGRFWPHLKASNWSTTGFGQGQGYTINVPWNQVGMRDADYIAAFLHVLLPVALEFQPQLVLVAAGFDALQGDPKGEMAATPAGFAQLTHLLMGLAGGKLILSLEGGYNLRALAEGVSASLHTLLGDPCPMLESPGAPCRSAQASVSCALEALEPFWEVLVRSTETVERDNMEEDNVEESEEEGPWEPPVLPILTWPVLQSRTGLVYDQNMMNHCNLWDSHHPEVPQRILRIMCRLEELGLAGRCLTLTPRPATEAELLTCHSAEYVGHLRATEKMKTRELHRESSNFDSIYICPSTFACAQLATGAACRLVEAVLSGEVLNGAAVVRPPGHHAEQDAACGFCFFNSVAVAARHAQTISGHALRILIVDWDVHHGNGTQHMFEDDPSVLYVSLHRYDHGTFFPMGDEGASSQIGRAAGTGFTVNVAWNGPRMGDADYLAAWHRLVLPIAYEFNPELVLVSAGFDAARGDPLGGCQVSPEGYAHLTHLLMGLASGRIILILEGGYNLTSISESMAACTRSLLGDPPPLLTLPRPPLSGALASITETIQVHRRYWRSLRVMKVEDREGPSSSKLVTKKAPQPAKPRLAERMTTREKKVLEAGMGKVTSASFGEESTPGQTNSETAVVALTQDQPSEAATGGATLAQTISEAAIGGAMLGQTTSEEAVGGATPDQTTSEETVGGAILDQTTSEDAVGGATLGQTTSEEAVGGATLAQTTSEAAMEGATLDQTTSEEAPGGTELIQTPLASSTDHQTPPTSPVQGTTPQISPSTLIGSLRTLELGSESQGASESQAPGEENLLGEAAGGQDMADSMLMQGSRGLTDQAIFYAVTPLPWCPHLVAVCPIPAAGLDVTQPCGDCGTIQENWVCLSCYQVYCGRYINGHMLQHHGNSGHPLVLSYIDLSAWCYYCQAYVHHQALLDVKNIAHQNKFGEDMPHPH

[7] = target: T6, Histone deacetylase 11 (Homo sapiens, UniProt Q96DB2); test: Inhibition of recombinant human HDAC11 preincubated for 10 mins followed by substrate addition by fluorescence based analysis
T6 sequence (Q96DB2 whole entry): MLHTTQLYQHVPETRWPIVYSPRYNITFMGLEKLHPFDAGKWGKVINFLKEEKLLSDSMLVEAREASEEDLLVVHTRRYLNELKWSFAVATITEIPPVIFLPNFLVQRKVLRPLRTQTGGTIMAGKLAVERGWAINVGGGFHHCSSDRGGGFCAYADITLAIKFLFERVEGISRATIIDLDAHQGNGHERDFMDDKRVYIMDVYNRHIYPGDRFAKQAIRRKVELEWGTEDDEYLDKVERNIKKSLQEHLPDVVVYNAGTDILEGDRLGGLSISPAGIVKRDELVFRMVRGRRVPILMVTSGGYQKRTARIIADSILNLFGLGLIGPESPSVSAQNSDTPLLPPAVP

[8] = target: T4, Histone deacetylase 8; test: Competitive inhibition of human HDAC8 using Abz-SRGGK(STFA)FFRR-NH2 (S) as substrate by Lineweaver-burk plot analysis
[9] = target: T7, Histone deacetylase 8 (Homo sapiens) (UniProt Q9BY41); test: Reversible binding affinity to recombinant human HDAC8 incubated for 30 mins by jump dilution method
T7 sequence (whole entry): T4 sequence (Q9BY41 whole entry)

[10] = Stability of compound in DMEM/DMSO/acetonitrile at pH 7.4 measured after 6 hrs by HPLC analysis; format: physicochemical; conditions: read-out: Stability
[11] = Stability of compound in DMEM/DMSO/acetonitrile at pH 7.4 measured after 12 hrs by HPLC analysis; format: physicochemical; conditions: read-out: Stability
[12] = Stability of compound in DMEM/DMSO/acetonitrile at pH 7.4 measured after 24 hrs by HPLC analysis; format: physicochemical; conditions: read-out: Stability
[13] = Stability of compound in DMEM/DMSO/acetonitrile at pH 7.4 measured after 48 hrs by HPLC analysis; format: physicochemical; conditions: read-out: Stability
[14] = Stability of compound in DMEM/DMSO/acetonitrile at pH 7.4 measured after 72 hrs by HPLC analysis; format: physicochemical; conditions: read-out: Stability
[15] = test system: HEK293; test: Cytotoxicity against HEK293 cells assessed as reduction in cell viability at 50 uM after 24 hrs by alamar blue assay; format: toxicity, cell-based; conditions: human, hek293, 24 h
[16] = target: T7, Histone deacetylase 8 (Homo sapiens); test: Inhibition of HDAC8 in human Jurkat T cells assessed as increase in H3K27 acetylation at 10 uM after 6 hrs by Western blot analysis; format: cell-based
[17] = test system: HEK293; test: Cytotoxicity against HEK293 cells assessed as reduction in cell viability after 24 hrs by alamar blue assay; format: functional, cell-based; conditions: Homo sapiens, HEK293, 24 h
[18] = target: T1, Histone deacetylase 1; test: Inhibition of recombinant human HDAC1 at 1 uM using p53 (Ac-RHKK(Acetyl)-AMC) as substrate preincubated for 5 mins followed by substrate addition and measured after 90 mins by fluorescence based analysis relative to control; conditions: time 95.0 min
[19] = target: T1, Histone deacetylase 1; test: Inhibition of recombinant human HDAC1 at 10 uM using p53 (Ac-RHKK(Acetyl)-AMC) as substrate preincubated for 5 mins followed by substrate addition and measured after 90 mins by fluorescence based analysis relative to control; conditions: time 95.0 min
[20] = target: T2, Histone deacetylase 2; test: Inhibition of recombinant human HDAC2 at 1 uM using p53 (Ac-RHKK(Acetyl)-AMC) as substrate preincubated for 5 mins followed by substrate addition and measured after 30 mins by fluorescence based analysis relative to control; conditions: time 35.0 min
[21] = target: T2, Histone deacetylase 2; test: Inhibition of recombinant human HDAC2 at 10 uM using p53 (Ac-RHKK(Acetyl)-AMC) as substrate preincubated for 5 mins followed by substrate addition and measured after 30 mins by fluorescence based analysis relative to control; conditions: time 35.0 min
[22] = target: T3, Histone deacetylase 3; test: Inhibition of recombinant human HDAC3 at 1 uM using p53 (Ac-RHKK(Acetyl)-AMC) as substrate preincubated for 5 mins followed by substrate addition and measured after 30 mins by fluorescence based analysis relative to control; conditions: time 35.0 min
[23] = target: T3, Histone deacetylase 3; test: Inhibition of recombinant human HDAC3 at 10 uM using p53 (Ac-RHKK(Acetyl)-AMC) as substrate preincubated for 5 mins followed by substrate addition and measured after 30 mins by fluorescence based analysis relative to control; conditions: time 35.0 min
[24] = target: T7, Histone deacetylase 8 (Homo sapiens); test: Inhibition of recombinant human HDAC8 at 1 uM using (Abz-SRGK(thio-TFA)FFRR-NH2) as substrate preincubated for 5 mins followed by substrate addition by fluorescence based analysis relative to control
[25] = target: T7, Histone deacetylase 8 (Homo sapiens); test: Inhibition of recombinant human HDAC8 at 10 uM using (Abz-SRGK(thio-TFA)FFRR-NH2) as substrate preincubated for 5 mins followed by substrate addition by fluorescence based analysis relative to control

T1 sequence (Q13547 whole entry): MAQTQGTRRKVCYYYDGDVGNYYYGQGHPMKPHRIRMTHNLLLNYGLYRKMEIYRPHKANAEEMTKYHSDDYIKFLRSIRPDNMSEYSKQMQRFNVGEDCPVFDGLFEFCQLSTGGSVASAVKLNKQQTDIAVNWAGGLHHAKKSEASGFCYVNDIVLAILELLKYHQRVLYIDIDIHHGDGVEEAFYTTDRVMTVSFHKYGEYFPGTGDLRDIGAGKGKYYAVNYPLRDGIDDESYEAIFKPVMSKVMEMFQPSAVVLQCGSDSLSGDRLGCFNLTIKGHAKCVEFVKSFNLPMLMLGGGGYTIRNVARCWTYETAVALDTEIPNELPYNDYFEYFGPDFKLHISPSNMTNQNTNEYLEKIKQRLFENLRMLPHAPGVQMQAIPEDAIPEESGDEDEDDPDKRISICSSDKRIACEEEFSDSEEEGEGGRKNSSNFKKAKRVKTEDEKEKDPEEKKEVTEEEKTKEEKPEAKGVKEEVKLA
T3 sequence (O15379 whole entry): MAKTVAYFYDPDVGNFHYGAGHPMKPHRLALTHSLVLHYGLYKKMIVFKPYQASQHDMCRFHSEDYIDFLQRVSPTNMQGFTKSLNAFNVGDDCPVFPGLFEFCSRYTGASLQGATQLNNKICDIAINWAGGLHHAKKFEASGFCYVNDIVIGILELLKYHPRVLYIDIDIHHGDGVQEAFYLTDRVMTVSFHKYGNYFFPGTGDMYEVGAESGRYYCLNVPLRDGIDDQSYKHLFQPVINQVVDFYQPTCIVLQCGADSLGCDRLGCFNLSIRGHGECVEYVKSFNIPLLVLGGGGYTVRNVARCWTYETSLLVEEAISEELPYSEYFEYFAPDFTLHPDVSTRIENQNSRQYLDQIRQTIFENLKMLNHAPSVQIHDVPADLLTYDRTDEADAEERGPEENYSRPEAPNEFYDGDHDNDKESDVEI
T2 sequence (Q92769 whole entry): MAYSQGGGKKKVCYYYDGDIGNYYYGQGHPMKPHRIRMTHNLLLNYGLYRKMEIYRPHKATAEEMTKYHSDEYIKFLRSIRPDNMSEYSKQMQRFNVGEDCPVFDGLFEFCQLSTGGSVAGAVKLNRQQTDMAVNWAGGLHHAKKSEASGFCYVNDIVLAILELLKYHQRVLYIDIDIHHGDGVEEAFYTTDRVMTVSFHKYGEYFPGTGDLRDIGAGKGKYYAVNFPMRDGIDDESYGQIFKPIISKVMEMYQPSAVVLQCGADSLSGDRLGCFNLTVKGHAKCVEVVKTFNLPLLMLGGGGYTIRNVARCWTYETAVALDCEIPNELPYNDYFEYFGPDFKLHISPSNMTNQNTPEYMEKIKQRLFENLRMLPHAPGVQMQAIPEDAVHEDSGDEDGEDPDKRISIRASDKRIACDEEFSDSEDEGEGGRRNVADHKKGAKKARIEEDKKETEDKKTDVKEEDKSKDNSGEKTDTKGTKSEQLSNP
Chain of Histone deacetylase 4 (P56524 whole entry): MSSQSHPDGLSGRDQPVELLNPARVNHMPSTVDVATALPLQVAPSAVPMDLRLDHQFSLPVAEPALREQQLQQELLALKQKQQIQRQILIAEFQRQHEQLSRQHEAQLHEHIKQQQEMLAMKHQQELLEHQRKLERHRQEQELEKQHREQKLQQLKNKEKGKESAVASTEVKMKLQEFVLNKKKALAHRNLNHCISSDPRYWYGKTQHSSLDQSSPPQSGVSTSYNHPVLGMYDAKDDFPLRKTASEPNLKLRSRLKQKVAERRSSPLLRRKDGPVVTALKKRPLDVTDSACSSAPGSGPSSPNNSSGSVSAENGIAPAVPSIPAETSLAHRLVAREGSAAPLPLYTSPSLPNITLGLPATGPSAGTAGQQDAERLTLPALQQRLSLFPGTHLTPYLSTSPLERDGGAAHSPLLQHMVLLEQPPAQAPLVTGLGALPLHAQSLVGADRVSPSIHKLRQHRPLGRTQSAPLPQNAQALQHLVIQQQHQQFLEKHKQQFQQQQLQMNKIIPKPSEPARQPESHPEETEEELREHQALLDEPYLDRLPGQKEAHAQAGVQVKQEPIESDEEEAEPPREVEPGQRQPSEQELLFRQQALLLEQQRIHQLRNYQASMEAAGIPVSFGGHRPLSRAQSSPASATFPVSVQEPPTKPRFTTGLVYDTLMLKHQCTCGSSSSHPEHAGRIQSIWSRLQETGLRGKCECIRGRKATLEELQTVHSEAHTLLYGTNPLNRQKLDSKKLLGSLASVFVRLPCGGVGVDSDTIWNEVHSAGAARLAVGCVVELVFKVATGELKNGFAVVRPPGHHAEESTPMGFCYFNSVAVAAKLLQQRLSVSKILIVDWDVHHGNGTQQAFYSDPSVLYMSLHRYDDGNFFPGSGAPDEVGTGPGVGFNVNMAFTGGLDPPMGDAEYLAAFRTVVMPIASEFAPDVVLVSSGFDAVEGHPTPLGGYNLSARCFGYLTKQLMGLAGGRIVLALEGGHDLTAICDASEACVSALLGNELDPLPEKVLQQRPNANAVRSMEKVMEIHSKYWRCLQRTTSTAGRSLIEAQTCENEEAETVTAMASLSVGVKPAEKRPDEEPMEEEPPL

SMILES	pIC50 [1]	pIC50 [2]	pIC50 [3]	pIC50 [4]	pIC50 [5]	pIC50 [6]	pIC50 [7]	remaining at 6 h [10] [%]	remaining at 12 h [11] [%]	remaining at 24 h [12] [%]	remaining at 48 h [13] [%]	remaining at 72 h [14] [%]	inhibition [18] [%]	inhibition [19] [%]	inhibition [20] [%]	inhibition [21] [%]	inhibition [22] [%]	inhibition [23] [%]	inhibition [24] [%]	Cell viability [15] [%]	other results
CCCNNC(=O)c1cnc(N2CCN(Cc3c[nH]c4ccccc34)CC2)nc1	7.14	5.96	7.52	8.09	< 4.70	< 4.70	6.24	81.7	83.3	82.9	27.1	31.1								47	pKi [8]: 8.26; Activity [9]: Active; inhibition [16]: Active
COc1cccc2c1C(=O)c1c(O)c3c(c(O)c1C2=O)C[C@@](O)(C(C)=O)C[C@@H]3O[C@H]1C[C@H](N)[C@H](O)[C@H](C)O1 [DAUNORUBICIN]																					pIC50 [17]: 5.92

Second part, led by results:

pIC50 [1]	pIC50 [2]	pIC50 [3]	pIC50 [4]	pIC50 [5]	pIC50 [6]	pIC50 [7]	remaining at 6 h [10] [%]	remaining at 12 h [11] [%]	remaining at 24 h [12] [%]	remaining at 48 h [13] [%]	remaining at 72 h [14] [%]	inhibition [18] [%]	inhibition [19] [%]	inhibition [20] [%]	inhibition [21] [%]	inhibition [22] [%]	inhibition [23] [%]	inhibition [24] [%]	SMILES	Cell viability [15] [%]	other results
5.80	6.20	7.04	6.15	6.00	< 4.70	5.74	98.3	97.3	94.9	90.4	86.8								CCCNNC(=O)c1ccc(-c2ccc(CNC(C)=O)cc2)cc1	83.9	
												51	85	39	90	41	87	51	CCCNNC(=O)c1cnc(NCCc2ccccc2)nc1	80.5	inhibition [25]: 89%
												9	35	5	26	9	42	2	CCCCCCNNC(=O)c1ccc(C)c(NCc2ccccc2)c1	41.7	inhibition [25]: 100%
